Measurements taken from PubChem BioAssay (NCI).
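These data come from cells grown in 96-well plates and exposed to compound for 48 hours at five concentrations. At the GI50, growth is halved. The concentration for full growth arrest is given as TGI.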

Experiments:
Assay in all cases: NCI anticancer screen, dose series, 48 h
[1] = tested on: MCF7 breast
[2] = tested on: SF-268 CNS
[3] = tested on: MALME-3M melanoma
[4] = tested on: IGROV1 ovarian
[5] = tested on: OVCAR-3 ovarian
[6] = tested on: MDA-MB-435
[7] = tested on: UACC-62 melanoma
[8] = tested on: RXF 393 renal
[9] = tested on: OVCAR-4 ovarian
[10] = tested on: OVCAR-5 ovarian
[11] = tested on: SK-MEL-28 melanoma
[12] = tested on: OVCAR-8 ovarian
[13] = tested on: NCI-H460 lung
[14] = tested on: SK-MEL-5 melanoma
[15] = tested on: SW-620 colon
[16] = tested on: SF-539 CNS
[17] = tested on: ACHN renal
[18] = tested on: U251 CNS
[19] = tested on: PC-3 prostate
[20] = tested on: RPMI-8226 leukemia
[21] = tested on: HOP-62 NSCLC
[22] = tested on: NCI-H226 lung
[23] = tested on: HL-60(TB) leukemia
[24] = tested on: HCT-15 colon
[25] = tested on: SR leukemia
[26] = tested on: KM12 colon
[27] = tested on: MOLT-4 leukemia
[28] = tested on: HOP-92 NSCLC
[29] = tested on: SNB-19 CNS
[30] = tested on: A498 renal
[31] = tested on: T-47D breast
[32] = tested on: HCC-2998 colon
[33] = tested on: MDA-MB-231 breast
[34] = tested on: HT29 colon
[35] = tested on: LOX IMVI melanoma
[36] = tested on: HS 578T breast
[37] = tested on: UACC-257 melanoma
[38] = tested on: 786-0 renal
[39] = tested on: DU-145 prostate
[40] = tested on: BT-549 breast
[41] = tested on: SK-MEL-2 melanoma
[42] = tested on: NCI-H522 lung
[43] = tested on: UO-31 renal
[44] = tested on: SNB-75 CNS
[45] = tested on: CCRF-CEM leukemia
[46] = tested on: EKVX NSCLC
[47] = tested on: SF-295 CNS
[48] = tested on: CAKI-1 renal
[49] = tested on: A549 NSCLC
[50] = tested on: SN12C renal
[51] = tested on: TK-10 renal
[52] = tested on: K-562 leukemia
[53] = tested on: SK-OV-3 ovarian
[54] = tested on: NCI-H23 lung
[55] = tested on: NCI/ADR-RES ovarian
[56] = tested on: HCT-116 colon

SMILES: N#Cc1nc(-c2ccc(F)cc2)oc1S(=O)(=O)N1CCOCC1
- GI50 [1]: 2.65 µM
- TGI [1]: 11.7 µM
- GI50 [2]: 11 µM
- TGI [2]: 25.4 µM
- GI50 [3]: 1.7 µM
- TGI [3]: 4.23 µM
- GI50 [4]: 3.68 µM
- TGI [4]: 14.6 µM
- GI50 [5]: 1.75 µM
- TGI [5]: 3.18 µM
- GI50 [6]: 2.38 µM
- TGI [6]: 6.9 µM
- GI50 [7]: 4.79 µM
- TGI [7]: 17.6 µM
- GI50 [8]: 1.49 µM
- TGI [8]: 2.92 µM
- GI50 [9]: 3.08 µM
- TGI [9]: 10.2 µM
- GI50 [10]: 2.8 µM
- TGI [10]: 9.38 µM
- GI50 [11]: 2.41 µM
- TGI [11]: 6.25 µM
- GI50 [12]: 4.71 µM
- TGI [12]: 30.2 µM
- GI50 [13]: 12.6 µM
- TGI [13]: 27.3 µM
- GI50 [14]: 6.33 µM
- TGI [14]: 18.8 µM
- GI50 [15]: 1.57 µM
- TGI [15]: 3.24 µM
- GI50 [16]: 1.88 µM
- TGI [16]: 4.02 µM
- GI50 [17]: 1.74 µM
- TGI [17]: 3.12 µM
- GI50 [18]: 14.5 µM
- TGI [18]: 31.5 µM
- GI50 [19]: 11.6 µM
- TGI [19]: 26.9 µM
- GI50 [20]: 1.55 µM
- TGI [20]: 4.49 µM
- GI50 [21]: 10.8 µM
- TGI [21]: 37.9 µM
- GI50 [22]: 4.33 µM
- TGI [22]: 19.9 µM
- GI50 [23]: 1.91 µM
- TGI [23]: 4.76 µM
- GI50 [24]: 1.98 µM
- TGI [24]: 5.37 µM
- GI50 [25]: 0.439 µM
- TGI [25]: 2.92 µM
- GI50 [26]: 12 µM
- TGI [26]: 26.3 µM
- GI50 [27]: 2.02 µM
- TGI [27]: 5.49 µM
- GI50 [28]: 2.66 µM
- TGI [28]: 9.48 µM
- GI50 [29]: 13.7 µM
- TGI [29]: 28 µM
- GI50 [30]: 15.6 µM
- TGI [30]: 32 µM
- GI50 [31]: 2.11 µM
- TGI [31]: 5.23 µM
- GI50 [32]: 11.9 µM
- TGI [32]: 25.5 µM
- GI50 [33]: 2.86 µM
- TGI [33]: 8.64 µM
- GI50 [34]: 3.11 µM
- TGI [34]: > 100 µM
- GI50 [35]: 1.02 µM
- TGI [35]: 2.3 µM
- GI50 [36]: 15.1 µM
- TGI [36]: 45.4 µM
- GI50 [37]: 7 µM
- TGI [37]: 20.7 µM
- GI50 [38]: 3.34 µM
- TGI [38]: 11.7 µM
- GI50 [39]: 2.23 µM
- TGI [39]: 6.07 µM
- GI50 [40]: 10.8 µM
- TGI [40]: 23 µM
- GI50 [41]: 13.4 µM
- TGI [41]: 27.5 µM
- GI50 [42]: 0.675 µM
- TGI [42]: 3.13 µM
- GI50 [43]: 1.62 µM
- TGI [43]: 2.97 µM
- GI50 [44]: 10.2 µM
- TGI [44]: 22 µM
- GI50 [45]: 1.62 µM
- TGI [45]: 7.35 µM
- GI50 [46]: 13.8 µM
- TGI [46]: 37 µM
- GI50 [47]: 16.1 µM
- TGI [47]: 30.6 µM
- GI50 [48]: 2.12 µM
- TGI [48]: 5.62 µM
- GI50 [49]: 18.2 µM
- TGI [49]: 38.7 µM
- GI50 [50]: 1.77 µM
- TGI [50]: 4.1 µM
- GI50 [51]: 1.75 µM
- TGI [51]: 3.26 µM
- GI50 [52]: 1.7 µM
- TGI [52]: 10.9 µM
- GI50 [53]: 23.4 µM
- TGI [53]: 86.6 µM
- GI50 [54]: 10.4 µM
- TGI [54]: 25.4 µM
- GI50 [55]: 13.4 µM
- TGI [55]: 47.2 µM
- GI50 [56]: 1.28 µM
- TGI [56]: 3.07 µM
